Test results reported in ChEMBL document CHEMBL1132638, “New (sulfonyloxy)piperazinyldibenzazepines as potential atypical antipsychotics: chemistry and pharmacological evaluation” (J Med Chem, 1999).

How the values were obtained:
[1] = molecular target: D(2) dopamine receptor (Homo sapiens, UniProt P14416); assay: Compound was tested in vitro for its binding affinity towards human Dopamine receptor D2
[2] = Partition coefficient (logP); format: physicochemical; conditions: octanol/water
[3] = molecular target: 5-hydroxytryptamine receptor 2A (Rattus norvegicus, UniProt P14842); assay: biochemical
Description: Binding affinity towards 5-hydroxytryptamine 2A receptor from rat frontal cortex using [3H]ketanserin as radioligand

[4] = molecular target: T1, D(4) dopamine receptor (Homo sapiens, UniProt P21917); assay: Compound was tested in vitro for its binding affinity towards human Dopamine receptor D4.2
T1 sequence (P21917 whole entry): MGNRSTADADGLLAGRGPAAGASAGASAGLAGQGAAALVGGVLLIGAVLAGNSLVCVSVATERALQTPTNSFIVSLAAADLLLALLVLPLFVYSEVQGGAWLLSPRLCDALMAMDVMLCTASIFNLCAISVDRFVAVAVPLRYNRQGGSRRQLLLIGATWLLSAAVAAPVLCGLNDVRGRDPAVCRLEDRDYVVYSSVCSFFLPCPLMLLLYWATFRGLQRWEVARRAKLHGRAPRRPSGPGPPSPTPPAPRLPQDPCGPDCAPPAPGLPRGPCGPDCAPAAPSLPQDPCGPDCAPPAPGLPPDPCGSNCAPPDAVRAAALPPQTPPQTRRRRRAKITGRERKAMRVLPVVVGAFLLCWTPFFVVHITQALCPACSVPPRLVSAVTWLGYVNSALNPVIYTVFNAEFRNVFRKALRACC

[5] = molecular target: D(3) dopamine receptor (Homo sapiens, UniProt P35462)
Description: Binding affinity towards human Dopamine receptor D3

[6] = molecular target: D(1A) dopamine receptor (Rattus norvegicus, UniProt P18901); assay: biochemical
Description: Binding affinity towards D1 CNS receptor of rat corpus striatum using [3H]SCH-23390 as radioligand

[7] = molecular target: T2, Adrenergic receptor alpha-1 (Rattus norvegicus, UniProt P15823+P23944+P43140); assay: Binding affinity towards alpha-1 adrenergic receptor from rat brain membranes using [3H]prazosin as radioligand
T2 sequence (P15823 whole entry): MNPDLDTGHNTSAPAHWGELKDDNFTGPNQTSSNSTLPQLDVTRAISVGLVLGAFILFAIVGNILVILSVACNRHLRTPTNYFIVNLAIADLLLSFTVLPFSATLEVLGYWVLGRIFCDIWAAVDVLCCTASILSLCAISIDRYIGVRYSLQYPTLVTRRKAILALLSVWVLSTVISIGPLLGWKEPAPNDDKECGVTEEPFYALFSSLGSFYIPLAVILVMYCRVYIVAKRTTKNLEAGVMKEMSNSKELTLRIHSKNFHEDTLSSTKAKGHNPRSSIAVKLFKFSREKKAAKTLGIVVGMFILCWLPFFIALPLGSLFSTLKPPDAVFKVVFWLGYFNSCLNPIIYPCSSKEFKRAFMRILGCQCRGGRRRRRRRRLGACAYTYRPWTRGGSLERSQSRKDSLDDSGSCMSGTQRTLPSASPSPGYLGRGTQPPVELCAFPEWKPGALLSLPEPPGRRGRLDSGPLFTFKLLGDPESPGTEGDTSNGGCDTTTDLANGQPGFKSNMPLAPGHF
T2 sequence (P23944 whole entry): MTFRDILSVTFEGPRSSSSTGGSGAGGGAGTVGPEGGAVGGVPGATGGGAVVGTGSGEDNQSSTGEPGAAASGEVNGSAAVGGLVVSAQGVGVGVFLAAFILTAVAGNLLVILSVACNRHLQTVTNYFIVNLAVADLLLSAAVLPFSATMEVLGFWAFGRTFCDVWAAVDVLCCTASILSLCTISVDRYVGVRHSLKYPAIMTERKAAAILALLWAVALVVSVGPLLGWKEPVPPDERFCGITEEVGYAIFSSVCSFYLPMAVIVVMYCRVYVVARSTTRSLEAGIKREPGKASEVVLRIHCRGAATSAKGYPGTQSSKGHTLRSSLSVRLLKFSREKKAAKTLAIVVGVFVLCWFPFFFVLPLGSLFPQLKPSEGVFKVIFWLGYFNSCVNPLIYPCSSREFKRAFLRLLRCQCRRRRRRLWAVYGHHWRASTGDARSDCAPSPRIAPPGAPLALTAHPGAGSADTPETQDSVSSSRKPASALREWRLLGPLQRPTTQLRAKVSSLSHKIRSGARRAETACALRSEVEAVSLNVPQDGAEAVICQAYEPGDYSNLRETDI
T2 sequence (P43140 whole entry): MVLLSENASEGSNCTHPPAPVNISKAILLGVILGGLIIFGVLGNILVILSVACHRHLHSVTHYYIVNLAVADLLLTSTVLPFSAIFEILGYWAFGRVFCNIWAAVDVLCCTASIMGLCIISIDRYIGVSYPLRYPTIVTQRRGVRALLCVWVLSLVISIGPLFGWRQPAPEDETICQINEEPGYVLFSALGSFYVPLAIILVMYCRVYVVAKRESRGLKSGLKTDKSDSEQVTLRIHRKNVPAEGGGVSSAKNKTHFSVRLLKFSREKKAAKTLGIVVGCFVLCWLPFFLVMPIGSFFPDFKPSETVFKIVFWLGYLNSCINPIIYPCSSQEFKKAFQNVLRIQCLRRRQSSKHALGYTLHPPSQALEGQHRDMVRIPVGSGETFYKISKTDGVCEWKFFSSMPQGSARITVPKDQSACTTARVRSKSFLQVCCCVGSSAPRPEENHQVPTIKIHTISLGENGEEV

[8] = molecular target: T3, 5-hydroxytryptamine receptor 2C (Rattus norvegicus, UniProt P08909)
T3 sequence (P08909 whole entry): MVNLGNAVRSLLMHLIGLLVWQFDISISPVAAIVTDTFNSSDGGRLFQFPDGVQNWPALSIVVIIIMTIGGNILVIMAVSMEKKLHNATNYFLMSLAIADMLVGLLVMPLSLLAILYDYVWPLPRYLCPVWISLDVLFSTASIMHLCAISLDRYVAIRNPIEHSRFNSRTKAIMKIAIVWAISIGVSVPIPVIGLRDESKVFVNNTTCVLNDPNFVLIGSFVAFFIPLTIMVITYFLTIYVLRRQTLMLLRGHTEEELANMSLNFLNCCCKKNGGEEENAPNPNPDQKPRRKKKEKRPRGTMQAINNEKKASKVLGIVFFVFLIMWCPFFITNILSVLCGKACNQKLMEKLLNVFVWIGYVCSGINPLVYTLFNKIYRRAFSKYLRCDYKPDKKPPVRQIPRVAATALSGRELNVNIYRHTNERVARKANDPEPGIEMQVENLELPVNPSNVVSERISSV
Description: Binding affinity towards 5-HT2C receptor from rat using [3H]mesulergine as radioligand

[9] = molecular target: T4, Muscarinic acetylcholine receptor M1 (Homo sapiens, UniProt P11229); assay: Inhibition of binding of 1.0 nM [3H]pirenzepine to cloned human Muscarinic acetylcholine receptor M1 expressed in membranes from CHO-K1 cells; format: cell-based
T4 sequence (P11229 whole entry): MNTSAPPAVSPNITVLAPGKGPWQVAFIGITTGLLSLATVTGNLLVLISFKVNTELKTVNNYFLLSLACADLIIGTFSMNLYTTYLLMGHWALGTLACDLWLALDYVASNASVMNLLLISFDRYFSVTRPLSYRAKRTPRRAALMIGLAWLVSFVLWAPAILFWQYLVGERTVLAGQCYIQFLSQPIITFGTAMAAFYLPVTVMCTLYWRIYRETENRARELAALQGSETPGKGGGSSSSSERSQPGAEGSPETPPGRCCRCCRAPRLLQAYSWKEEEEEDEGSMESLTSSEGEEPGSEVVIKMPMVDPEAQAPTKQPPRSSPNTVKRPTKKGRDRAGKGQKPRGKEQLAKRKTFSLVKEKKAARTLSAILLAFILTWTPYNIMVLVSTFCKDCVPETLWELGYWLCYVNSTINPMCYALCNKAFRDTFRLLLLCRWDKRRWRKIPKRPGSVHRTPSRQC

[10] = organism: Rattus norvegicus; assay: Ex vivo accumulation of L-DOPA was measured in striatum of rats
[11] = Therapeutic ratio by Peroral dose of administration (quotient ED50 catalepsy/ED50 climbing); format: ADME, organism-based; conditions: in vivo, po; read-out: Therapeutic ratio
[12] = tested on: Rattus norvegicus; assay: Compound is measured for inhibition of catalepsy in rat by peroral administration of compound; format: functional; conditions: po
[13] = molecular target: Histamine H1 receptor (Rattus norvegicus, UniProt P31390); assay: Binding affinity towards histamine H1 receptor from rat brain membranes using [3H]mepyramine as radioligand
[14] = molecular target: T1, D(4) dopamine receptor; assay: Binding affinity towards human D4.2 receptor
[15] = Delta ED50 value by peroral administration (ED50 catalepsy-ED50 Climbing); format: functional
[16] = tested on: Mus musculus; assay: Inhibition of apomorphine induced climbing affects in mice by administering the compound perorally in mice; format: functional; conditions: Mus musculus, po; read-out: ED50
[17] = tested on: Mus musculus; assay: Inhibition of apomorphine induced climbing affects in mice by administering the compound subcutaneously in mice; format: functional; conditions: sc
[18] = tested on: Rattus norvegicus; assay: Catalepsy percent score in rat by peroral administration of 100 mg/Kg of compound
[19] = tested on: Rattus norvegicus; assay: Inhibition of catalepsy in rat by subcutaneous administration of compound; format: functional; conditions: sc
[20] = in vivo; conditions: sc
Description: Therapeutic ratio by Subcutaneous dose of administration (quotient ED50 catalepsy/ED50 climbing)

[21] = Delta ED50 value by Subcutaneous administration (ED50 catalepsy-ED50 Climbing); format: functional

D(3) dopamine receptor, sequence (P35462 whole entry): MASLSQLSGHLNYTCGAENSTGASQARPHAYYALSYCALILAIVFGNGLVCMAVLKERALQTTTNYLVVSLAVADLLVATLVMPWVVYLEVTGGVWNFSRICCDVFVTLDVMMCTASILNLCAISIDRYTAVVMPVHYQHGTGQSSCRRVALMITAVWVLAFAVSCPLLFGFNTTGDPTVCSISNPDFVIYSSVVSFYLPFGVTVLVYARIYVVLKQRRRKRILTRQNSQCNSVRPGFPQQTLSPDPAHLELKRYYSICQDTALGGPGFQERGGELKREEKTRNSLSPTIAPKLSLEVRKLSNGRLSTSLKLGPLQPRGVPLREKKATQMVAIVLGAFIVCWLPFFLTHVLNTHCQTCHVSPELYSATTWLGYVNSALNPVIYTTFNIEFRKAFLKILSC
D(1A) dopamine receptor, sequence (P18901 whole entry): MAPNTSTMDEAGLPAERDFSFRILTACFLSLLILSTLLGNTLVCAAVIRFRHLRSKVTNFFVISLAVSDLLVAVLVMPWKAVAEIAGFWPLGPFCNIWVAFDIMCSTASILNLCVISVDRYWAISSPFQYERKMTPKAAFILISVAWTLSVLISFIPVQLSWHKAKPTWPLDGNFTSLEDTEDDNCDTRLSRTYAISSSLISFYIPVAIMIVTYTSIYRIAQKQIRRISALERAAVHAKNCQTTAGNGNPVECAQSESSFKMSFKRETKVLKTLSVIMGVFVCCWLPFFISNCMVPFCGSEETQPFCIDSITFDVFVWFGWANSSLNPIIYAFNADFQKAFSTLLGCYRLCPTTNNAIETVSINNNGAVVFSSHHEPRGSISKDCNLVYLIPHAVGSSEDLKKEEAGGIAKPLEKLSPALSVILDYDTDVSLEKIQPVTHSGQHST
5-hydroxytryptamine receptor 2A, sequence (P14842 whole entry): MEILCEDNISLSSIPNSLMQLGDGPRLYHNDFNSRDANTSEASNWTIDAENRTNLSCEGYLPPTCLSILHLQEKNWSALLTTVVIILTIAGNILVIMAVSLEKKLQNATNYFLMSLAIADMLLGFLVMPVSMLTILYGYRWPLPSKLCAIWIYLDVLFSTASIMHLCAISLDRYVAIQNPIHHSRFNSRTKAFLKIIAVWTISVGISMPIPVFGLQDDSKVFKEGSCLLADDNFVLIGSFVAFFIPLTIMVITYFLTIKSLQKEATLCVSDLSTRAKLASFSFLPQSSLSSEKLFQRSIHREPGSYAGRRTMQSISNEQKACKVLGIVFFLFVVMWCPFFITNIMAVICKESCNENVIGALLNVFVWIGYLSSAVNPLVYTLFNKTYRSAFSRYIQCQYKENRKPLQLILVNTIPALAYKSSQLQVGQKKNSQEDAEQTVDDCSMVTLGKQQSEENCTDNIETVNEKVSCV
Histamine H1 receptor, sequence (P31390 whole entry): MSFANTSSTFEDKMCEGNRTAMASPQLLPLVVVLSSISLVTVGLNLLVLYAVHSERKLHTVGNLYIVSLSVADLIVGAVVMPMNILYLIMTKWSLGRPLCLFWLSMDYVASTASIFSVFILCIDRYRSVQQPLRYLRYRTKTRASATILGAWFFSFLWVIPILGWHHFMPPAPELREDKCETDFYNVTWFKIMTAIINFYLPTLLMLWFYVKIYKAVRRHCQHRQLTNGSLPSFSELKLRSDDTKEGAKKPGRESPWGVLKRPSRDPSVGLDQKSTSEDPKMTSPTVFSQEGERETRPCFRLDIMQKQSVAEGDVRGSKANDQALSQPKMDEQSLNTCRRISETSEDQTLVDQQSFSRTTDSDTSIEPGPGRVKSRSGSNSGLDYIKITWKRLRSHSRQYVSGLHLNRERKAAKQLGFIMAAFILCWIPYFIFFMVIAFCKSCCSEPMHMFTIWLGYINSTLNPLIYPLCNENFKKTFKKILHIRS
D(2) dopamine receptor, sequence (P14416 whole entry): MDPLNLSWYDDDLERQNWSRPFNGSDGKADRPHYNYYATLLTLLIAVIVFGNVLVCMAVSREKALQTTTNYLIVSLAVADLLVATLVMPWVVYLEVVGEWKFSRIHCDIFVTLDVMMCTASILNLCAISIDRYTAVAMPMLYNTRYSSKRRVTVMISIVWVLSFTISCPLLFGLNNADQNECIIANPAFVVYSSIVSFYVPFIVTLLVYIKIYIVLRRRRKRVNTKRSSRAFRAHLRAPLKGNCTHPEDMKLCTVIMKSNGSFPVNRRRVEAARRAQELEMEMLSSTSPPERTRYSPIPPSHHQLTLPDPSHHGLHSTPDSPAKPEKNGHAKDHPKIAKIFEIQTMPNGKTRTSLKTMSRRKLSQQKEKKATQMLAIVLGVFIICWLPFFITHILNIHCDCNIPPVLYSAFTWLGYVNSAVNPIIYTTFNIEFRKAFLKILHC

For CN1CCN(C2=Nc3ccccc3Oc3ccc(OS(C)(=O)=O)cc32)CC1, the IC50 [1] was > 1000 nM, the logP [2] was 1.98 and the IC50 [3] was 230 nM. The IC50 [4] was > 1000 nM and the IC50 [5] was 350 nM.
CN1CCN(C2=Nc3ccccc3Nc3ccc(OS(C)(=O)=O)cc32)CC1 gave an IC50 [6] of 2100 nM, a logP [2] of 1.8 and an IC50 [7] of 160 nM. The IC50 [8] was 1200 nM.
In the case of CN1CCN(C2=Nc3ccccc3Nc3ccc(O)cc32)CC1, the logP [2] is reported as 2.21.
CN1CCN(C2=Nc3cc(OS(=O)(=O)C(F)(F)F)ccc3Nc3ccccc32)CC1 gave a logP [2] of 3.58.
Molecule CN1CCN(C2=Nc3ccccc3Oc3ccc(OS(=O)(=O)C(F)(F)F)cc32)CC1 has an IC50 [6] of 66 nM, an IC50 [9] of 490 nM and an ED50 [10] of 0.7 mg/kg. The selectivity ratio [11] was 21.5, the logP [2] was 3.76 and the ED50 [12] was 28 mg/kg. It also gave an IC50 [7] of 27 nM, an IC50 [13] of 120 nM and an IC50 [14] of 150 nM. For the same molecule, the IC50 [8] was 100 nM, the IC50 [3] was 48 nM and the “Delta ED50” value [15] was 26.7 mg/kg. It also gave an ED50 [16] of 1.3 mg/kg, an IC50 [5] of 29 nM and an ED50 [17] of 2.2 mg/kg. For the same molecule, the Catalepsy [18] was 32%.
For CN1CCN(C2=Nc3cc(Cl)ccc3Nc3ccc(OS(=O)(=O)C(F)(F)F)cc32)CC1, the IC50 [6] was 200 nM, the IC50 [9] was 54 nM and the ED50 [19] was > 50 mg/kg. For the same molecule, the logP [2] was 4.3, the IC50 [7] was 7.1 nM and the IC50 [14] was 490 nM. For the same molecule, the IC50 [8] was 13 nM, the selectivity ratio [20] was > 6.1 and the IC50 [3] was 23 nM. For the same molecule, the “Delta ED50” value [21] was >41.8 mg/kg, the IC50 [5] was 52 nM and the ED50 [17] was 8.2 mg/kg.
With CN1CCN(C2=Nc3cc(O)ccc3Nc3ccccc32)CC1 the logP [2] was 2.21.
For CN1CCN(C2=Nc3cc(OS(C)(=O)=O)ccc3Nc3ccccc32)CC1, the IC50 [6] was 22000 nM, the IC50 [9] was 38 nM and the logP [2] was 1.8. For the same molecule, the IC50 [7] was 8700 nM, the IC50 [8] was 7400 nM and the IC50 [3] was 4900 nM.
